Among the test systems are NCI-H23 lung; SK-OV-3 ovarian; CCRF-CEM leukemia; SK-MEL-5 melanoma; M19-MEL melanoma; SW-620 colon; K-562 leukemia; LXFL 529 NSCLC; U251 CNS; COLO 205 colon.
What all share (experiment): DTP human tumour cell line panel, 48 h

The term TGI denotes the concentration giving total growth inhibition. A word on the GI50: it is the concentration that inhibits growth by half.

Values joined by “and” are separate entries in the source; they are usually repeats but may differ in a detail not shown here. Identical values can stand only once.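 These data come from cells grown in 96-well plates and exposed to compound for 48 hours at five concentrations. GI50 is the concentration that inhibits growth by half. TGI marks complete inhibition of growth.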

With `CCN(CC)C(=S)SC1CCOP(=O)(N(CCCl)CCCl)N1C` (stereo not given), the TGI was more than 100 µM in the test on NCI-H23 lung; more than 100 µM in the test with SK-OV-3 ovarian; 43.1 µM in the test on CCRF-CEM leukemia; 30.8 µM with SK-MEL-5 melanoma; 14.8 µM in the test on M19-MEL melanoma; more than 34.9 µM with SW-620 colon. Moreover, the total growth inhibition concentration (TGI) was 49.9 µM with K-562 leukemia, 19.3 µM in the test on LXFL 529 NSCLC and more than 52.5 µM in the test on U251 CNS.
Take `O=c1c2ccccc2c(=O)c2c1cc(Cl)c1[nH]c3c([nH]c12)c(Cl)cc1c(=O)c2ccccc2c(=O)c13`: the TGI with NCI-H23 lung, with SK-OV-3 ovarian, with CCRF-CEM leukemia, with M19-MEL melanoma, in the test with SW-620 colon and with K-562 leukemia was more than 100 µM each time. Further, the TGI in the test on COLO 205 colon and with U251 CNS was more than 100 µM in each case.
For `O=C(O)C1c2ccccc2C(C(=O)O)c2ccccc21` (stereo not given), the TGI in the test with SK-OV-3 ovarian, in the test with CCRF-CEM leukemia, in the test on SK-MEL-5 melanoma, with M19-MEL melanoma, in the test with SW-620 colon and in the test with K-562 leukemia was more than 100 µM each time. The TGI in the test with LXFL 529 NSCLC, in the test on COLO 205 colon and in the test on U251 CNS was more than 100 µM in each case.
`Cc1cc(C(=O)N2CCN(Cc3ccccc3)CC2)c(C)o1`: the TGI in the test on NCI-H23 lung, with SK-OV-3 ovarian, with CCRF-CEM leukemia, with SK-MEL-5 melanoma, in the test with M19-MEL melanoma and in the test on SW-620 colon was more than 100 µM throughout. The TGI in the test with K-562 leukemia, in the test on LXFL 529 NSCLC and in the test with U251 CNS was more than 100 µM throughout.
As for `CCC[CH2][Sn]([CH2]CCC)([O]C(=O)c1nccnc1N)[O]C(=O)c1nccnc1N`, the GI50 was 0.573 µM in the test on NCI-H23 lung; 2.06 µM with SK-OV-3 ovarian; 1.24 µM in the test with SK-MEL-5 melanoma; 0.319 µM in the test on SW-620 colon; 0.124 µM with LXFL 529 NSCLC; 0.899 µM in the test with COLO 205 colon. Moreover, the GI50 with U251 CNS is 0.478 µM. Also, the TGI in the test on NCI-H23 lung turned out to be 1.91 µM; with SK-OV-3 ovarian, 3.63 µM; in the test with SK-MEL-5 melanoma it was 2.49 µM; in the test on M19-MEL melanoma, 1.49 µM; with SW-620 colon, 1.26 µM; in the test with LXFL 529 NSCLC, 0.327 µM. The TGI in the test with COLO 205 colon is 2.1 µM; in the test on U251 CNS it was 1.65 µM.
Regarding `COc1cc([C@@H]2c3cc4c(cc3[C@H](O)[C@H]3COC(=O)[C@H]23)OCO4)cc(OC)c1OC`, the GI50 in the test on NCI-H23 lung, in the test with SK-OV-3 ovarian, in the test on CCRF-CEM leukemia, with SW-620 colon, with K-562 leukemia and in the test on COLO 205 colon was less than 0.01 µM throughout. Besides, in the test on U251 CNS, the GI50 is less than 0.005 µM. The TGI with NCI-H23 lung was > 100 µM and 50 µM and > 7.43 µM; in the test on SK-MEL-5 melanoma, 0.0477 µM; with SW-620 colon, > 100 µM and 50 µM; with K-562 leukemia it was > 100 µM and 50 µM; with LXFL 529 NSCLC, more than 100 µM; in the test on COLO 205 colon, less than 0.005 µM. The TGI in the test on U251 CNS was > 100 µM and 50 µM and > 7.6 µM.
For `C=C1CCC2C3(C)COC(c4ccc(SC)cc4)OC3CCC2(C)C1C/C=C1/C(=O)OCC1O` (stereo not given), the GI50 is 4.48 µM in the test on NCI-H23 lung; 16.3 µM in the test with SK-OV-3 ovarian; 2.92 µM in the test on CCRF-CEM leukemia; 6.85 µM in the test with SK-MEL-5 melanoma; 1.93 µM in the test with SW-620 colon; 2.66 µM in the test on K-562 leukemia. The GI50 with COLO 205 colon was 7.72 µM; in the test with U251 CNS, 2.29 µM. Moreover, the total growth inhibition concentration (TGI) with NCI-H23 lung was found to be 17.4 µM; in the test on SK-OV-3 ovarian, 32 µM; with CCRF-CEM leukemia it was 13.7 µM; in the test with SK-MEL-5 melanoma it was 19.4 µM; in the test on SW-620 colon, 3.66 µM; in the test with K-562 leukemia, 12.2 µM. Further, the concentration for total growth inhibition (TGI) in the test on COLO 205 colon is 20.6 µM; with U251 CNS, 5.7 µM.
`OC(COc1cccc2ccccc12)CN1CCN(c2ccccc2)CC1` (stereo not given): the GI50 is 15.9 µM in the test with NCI-H23 lung; 17 µM in the test on SK-OV-3 ovarian; 17.9 µM with CCRF-CEM leukemia; 15.9 µM in the test with SK-MEL-5 melanoma; 15.2 µM in the test with SW-620 colon; 13.7 µM with K-562 leukemia. The results for the GI50 in the test on COLO 205 colon and in the test on U251 CNS were 16.4 µM and 17.3 µM, respectively. For the same compound, the TGI in the test on NCI-H23 lung is 31.9 µM; in the test with SK-OV-3 ovarian, 32.4 µM; in the test on CCRF-CEM leukemia, 53.2 µM; in the test on SK-MEL-5 melanoma it was 29.9 µM; in the test on SW-620 colon, 30.1 µM; in the test on K-562 leukemia, 34 µM. The total growth inhibition concentration (TGI) is 30.9 µM with COLO 205 colon and 32.1 µM in the test on U251 CNS.
In the case of `COC(=O)c1ccc([N+](=O)[O-])c(O)c1`, the TGI in the test on NCI-H23 lung, with SK-OV-3 ovarian, in the test on CCRF-CEM leukemia, with SK-MEL-5 melanoma, in the test on SW-620 colon and in the test on K-562 leukemia was more than 100 µM in each case. Further, the TGI in the test with COLO 205 colon and in the test on U251 CNS was more than 100 µM in each case.
On to `Cc1cc(-c2nc(-c3ccc(OC(F)(F)F)cc3)no2)nn1Cc1ccnc(N2CCN(C3CC3)CC2)c1`, for which the GI50 with NCI-H23 lung was less than 0.01 µM; in the test on SK-OV-3 ovarian it was more than 49.6 µM; with CCRF-CEM leukemia it was 7.09 µM; in the test with SK-MEL-5 melanoma, less than 0.01 µM; in the test with SW-620 colon, more than 34.5 µM; with K-562 leukemia it was less than 0.01 µM. Also, the results for the GI50 in the test with COLO 205 colon and in the test on U251 CNS were 3.27 µM and 5.52 µM, respectively. The total growth inhibition concentration (TGI) in the test with NCI-H23 lung is more than 86.3 µM; in the test on SK-OV-3 ovarian it was more than 100 µM; with CCRF-CEM leukemia it was more than 100 µM; in the test with SK-MEL-5 melanoma, 2.45 µM; in the test with SW-620 colon, more than 68.7 µM; with K-562 leukemia it was more than 100 µM. Further, the TGI with COLO 205 colon was 25.7 µM; in the test on U251 CNS, more than 100 µM.
Consider `CC1=C(/C=C/C(C)=C/C=C/C(C)=C/C(=O)Nc2ccc(O)cc2)C(C)(C)CCC1`, for which the GI50 in the test on NCI-H23 lung was 1.83 µM; in the test with SK-OV-3 ovarian it was 2.82 µM; with CCRF-CEM leukemia, 0.238 µM; in the test on SK-MEL-5 melanoma, 2.1 µM; with K-562 leukemia, 1.38 µM; in the test with COLO 205 colon, 1.58 µM. In addition, the GI50 in the test on U251 CNS is 1.94 µM. Besides, the TGI in the test on NCI-H23 lung is 5.41 µM and 5.3 µM; with SK-OV-3 ovarian, 9.71 µM and 17.2 µM; in the test with CCRF-CEM leukemia, 13.5 µM and 3.59 µM; in the test with SK-MEL-5 melanoma, 7.21 µM and 12 µM; in the test with SW-620 colon it was 13.7 µM and 44.5 µM; in the test on K-562 leukemia, 4.28 µM and > 40.4 µM. For the same compound, the TGI was 4.8 µM and 8.28 µM with COLO 205 colon; 7.79 µM and 33.3 µM in the test on U251 CNS.
